Positions of bridges follow the written chain, without caps; N, C: chain ends. No end group written: not given here.
Columns and labels:
[1] = system: primary CD14+ blood monocytes; assay: Cytokine response by human monocytes, multiplex xMAP; format: cell-based; details: 2 µM peptide, 24 h, supernatant; for MCP-3: untreated control 52.14; for TNFa: untreated control 67.34; for PDGF-AB/BB: untreated control 86.09; for MIG: untreated control 205.59
[2] = Circular dichroism spectroscopy, secondary structure estimation; format: physicochemical; details: calculated from previously published CD spectra

TYYGNGVSCNKKGCSVDWGKAISIIGNNSAANLATGGAAGWKS (disulfide 9-14) [Avicin A]
IL-1b ([1]; untreated control 2.28): 17.13 pg/mL
IL-6 ([1]; untreated control 4.48): 2787 pg/mL
VEGFa ([1]; untreated control 5.44): <1.52↓ pg/ml
MIP-1a ([1]; untreated control 11.73): 6628 pg/mL
PDGF-AA ([1]; untreated control 12.5): 10.87 pg/mL
sCD40L ([1]; untreated control 15.86): 45.71 pg/mL
IP-10 ([1]; untreated control 19.67): 21.71 pg/mL
MIP-1b ([1]; untreated control 34.63): 3805 pg/mL
MCP-3 [1]: 227 pg/mL
MCP-3 ([1]; listed as AviA): 227.15 pg/mL
TNFa [1]: 17,982 pg/ml
TNFa ([1]; listed as AviA): 17982 pg/mL
PDGF-AB/BB [1]: 99 pg/mL
PDGF-AB/BB ([1]; listed as AviA): 99.49 pg/mL
MIG [1]: 729 pg/mL
MIG ([1]; listed as AviA): 729.91 pg/mL
IL-1RA ([1]; untreated control 261.2): 253.61 pg/mL
GROa ([1]; untreated control 311.89): 4832 pg/mL
MDC ([1]; untreated control 463.06): 2303 pg/mL
MCP-1 ([1]; untreated control 464.5): 3950 pg/mL
IL-8 ([1]; untreated control 12488): >36420↑ pg/ml
IL-7 ([1]; untreated control <0.20): <0.20↓ pg/ml
IL-18 ([1]; untreated control <0.20): <0.20↓ pg/ml
IL-5 ([1]; untreated control <0.26): <0.26↓ pg/ml
IL-4 ([1]; untreated control <0.33): <0.33↓ pg/ml
TNFb ([1]; untreated control <0.49): 7.81 pg/mL
TGF-a ([1]; untreated control <0.53): 2.38 pg/mL
IL-3 ([1]; untreated control <0.68): <0.68↓ pg/ml
IL-2 ([1]; untreated control <0.85): 0.86 pg/mL
IL-10 ([1]; untreated control <1.23): 4.28 pg/mL
FLT-3L ([1]; untreated control <1.35): <1.35↓ pg/ml
GM-CSF ([1]; untreated control <1.39): 12.72 pg/mL
IL-15 ([1]; untreated control <1.45): 1.55 pg/mL
IL-12 (p70) ([1]; untreated control <1.58): <1.58↓ pg/ml
IFNg ([1]; untreated control <1.79): <1.79↓ pg/ml
IL-17A ([1]; untreated control <2.00): <2.00↓ pg/ml
IL-1a ([1]; untreated control <2.78): 10.22 pg/mL
RANTES ([1]; untreated control <2.79): 638.27 pg/mL
IL-13 ([1]; untreated control <2.90): 7.71 pg/mL
G-CSF ([1]; untreated control <3.18): 190 pg/mL
IL-12 (p40) ([1]; untreated control <3.18): 19.93 pg/mL
G-CSF ([1]; untreated control <3.18, listed as AviA): 190.3 pg/mL
IFNa2 ([1]; untreated control <3.89): 4.69 pg/mL
Eotaxin ([1]; untreated control <4.09): <4.09↓ pg/ml
IL-9 ([1]; untreated control <4.87): 6.5 pg/mL
EGF ([1]; untreated control <4.94): 6.51 pg/mL
IL-22 ([1]; untreated control <7.95): 15.81 pg/mL
IL-27 ([1]; untreated control <11.45): 31.07 pg/mL
FGF-2 ([1]; untreated control <12.00): 33.02 pg/mL
IL-17F ([1]; untreated control <14.61): <14.61↓ pg/ml
Fractalkine ([1]; untreated control <19.20): <19.20↓ pg/ml
IL-17E/IL-25 ([1]; untreated control <19.97): <19.97↓ pg/ml
M-GSF ([1]; untreated control <23.43): 261.13 pg/mL
Random ([2]; Aqueous solution): 39.3%
α-Helix ([2]; Aqueous solution): 5.8%
β-Sheet ([2]; Aqueous solution): 32.8%
β-Turn ([2]; Aqueous solution): 22.1%
Random ([2]; DPC micelles): 27.8%
α-Helix ([2]; DPC micelles): 19.4%
β-Sheet ([2]; DPC micelles): 28.6%
β-Turn ([2]; DPC micelles): 21.6%
Random ([2]; SDS micelles): 30.4%
α-Helix ([2]; SDS micelles): 19.7%
β-Sheet ([2]; SDS micelles): 29.3%
β-Turn ([2]; SDS micelles): 23.1%

Reference: article PMC9780942, “Antimicrobial Activity and Immunomodulatory Properties of Acidocin A, the Pediocin-like Bacteriocin with the Non-Canonical Structure” (Membranes, 2022)
